# Test results taken from ChEMBL document CHEMBL3301361, “Experimental in vitro DMPK and physicochemical data on a set of publicly disclosed compounds”.
# Residues, ends and D or L forms follow the SMILES beside them.
# Assays:
# in vitro [1] = settings: SD, HW or BN, rat, plasma
# in vitro [2] = settings: hepatocytes
# in vitro [3] = settings: human
# in vitro [4] = settings: Beagle, dog, plasma
# in vitro [5] = settings: human, hepatocytes
# in vitro [6] = settings: human, plasma
# physchem [7] = settings: octan-1-ol/water
# physchem [8] = settings: pH 7.4 buffer
Compound,fraction unbound at 5 h (in vitro [1]),hepatocyte CLint (in vitro [2]) [µL/min/1e6 cells],microsomal CLint (in vitro [3]; microsomes) [µL/min/mg],fraction unbound at 5 h (in vitro [4]),hepatocyte CLint (in vitro [5]) [µL/min/1e6 cells],fraction unbound at 5 h (in vitro [6]; PPB),"logD (physchem [7]; pH 7.4, LogD7.4)",microsomal CLint (in vitro [3]; liver microsomes) [µL/min/mg],logD (physchem [7]; pH 7.4),fraction unbound at 5 h (in vitro [6]),solubility thermodynamic (physchem [8]) [µM]
CCOc1cc2ncc(C(N)=O)c(Nc3ccc(C)cc3F)c2cc1N1CCN(C)CC1,0.151,12,26,0.183,,,,,,,
COc1ccc(CCN2C(=O)N(NS(C)(=O)=O)C[C@@H]2c2ccc(OC)cc2)cc1,0.0191,,,0.0854,19.1,0.0477,,,,,
COc1ccc(CCN2C(=O)N(NS(C)(=O)=O)C[C@H]2c2ccc(OC)cc2)cc1,0.0568,,,0.089,21.9,0.0633,,,,,
Cc1cc(Nc2cnc(C#N)c(N[C@@H](C)c3ncc(F)cn3)n2)n[nH]1,0.376,,,0.398,,0.186,1.96,,,,
Cc1cc(Nc2cnc(C#N)c(N[C@@H](C)c3ccc(F)cn3)n2)n[nH]1,0.16,,,0.204,,0.145,2.51,,,,
CCCCNC(=O)c1ccc(Oc2ccc(CC(=O)O)cc2OC)c(NS(=O)(=O)c2ccc(Cl)cc2Cl)c1,0.0019,,< 3,0.0171,,0.002,,,,,
C[C@H](NC(=O)[C@@H](Cc1c[nH]c2ccccc12)NC(=O)[C@@H](N)Cc1c[nH]cn1)C(=O)N[C@@H](Cc1c[nH]c2ccccc12)C(=O)N[C@H](Cc1ccccc1)C(=O)N[C@@H](CCCCN)C(N)=O (HELM PEPTIDE1{H.[dW].A.W.[dF].K.[am]}$$$$V2.0),0.262,,,0.183,,,,61.7,,,
COc1cc(-n2cnc3cc(-c4ccc(Cl)cc4)sc3c2=O)ccc1OC[C@H](OP(=O)(O)O)C1CC1 [BMS-830216],,,,0.0084,12.3,0.0061,-0.04,< 3,,,
COC[C@H](O)Cn1c(=O)cnn(-c2ccc(Cl)c(C(=O)NCC3(O)CCCCCC3)c2)c1=O [CE-224535],0.477,,,0.552,,0.415,1.46,,,,
O=c1[nH]c2ccccc2n1CCCN1CCC(n2c(=O)[nH]c3cc(Cl)ccc32)CC1 [DOMPERIDONE],0.069,,,0.0872,,,,,3.45,0.0335,
CC(C)(N)C(=O)N[C@H](COCc1ccccc1)C(=O)N1CCC2(CC1)CN(S(C)(=O)=O)c1ccccc12 [IBUTAMOREN],0.253,,,0.212,14.4,0.232,1.4,,,,
C#CC[C@@H](C(=O)N[C@H](/C=C/C(=O)OCC)C[C@@H]1CCNC1=O)n1cccc(NC(=O)c2cc(C)on2)c1=O [IMOCITRELVIR],,> 150,20.9,0.535,,0.443,1.75,,,,
CC(C)Oc1ccc2c(=O)c(-c3ccccc3)coc2c1 [IPRIFLAVONE],0.0056,110,,0.0051,,0.0053,4.07,,,,2.8
CCCCC1=NC2(CCCC2)C(=O)N1Cc1ccc(-c2ccccc2-c2nnn[nH]2)cc1 [IRBESARTAN],,9.01,17.8,0.0146,10.5,,,,,,891
CC[C@@H](Nc1c(Nc2cccc(C(=O)N(C)C)c2O)c(=O)c1=O)c1ccc(C)o1 [NAVARIXIN ANHYDROUS],0.0106,,,0.089,,0.0179,2.32,,,,
COCCOC(=O)C1=C(C)NC(C)=C(C(=O)OC(C)C)C1c1cccc([N+](=O)[O-])c1 (centres undefined) [NIMODIPINE],0.0175,,,0.0116,,0.0183,3.8,,,,3.1
CCOC(=O)C1=C(C)NC(C)=C(C(=O)OC)C1c1cccc([N+](=O)[O-])c1 (centres undefined) [NITRENDIPINE],0.0077,75,,0.0108,,0.009,,85,,,
O=C(Nc1ccccc1F)N[C@H]1N=C(c2ccccc2)c2ccccc2NC1=O [RSV-604],0.0274,,,0.0307,,,,,4,0.0366,2.6
N#CC[C@H](C1CCCC1)n1cc(-c2ncnc3[nH]ccc23)cn1 [RUXOLITINIB],0.173,,,0.166,,0.0532,2.55,,,,
CC1=C(C)C(=O)C(C(CCCCCC(=O)O)c2ccccc2)=C(C)C1=O (centres undefined) [SERATRODAST],,85,3,0.02,,,2.48,,,,
Cc1ccc(C(=O)c2ccc(CC(=O)O)n2C)cc1 [TOLMETIN],0.0287,7.33,4,0.0477,,0.0028,-1.02,,,,
